Measured values taken from article PMC3703951 (Bioorganic & medicinal chemistry letters, 2013).

How the values were obtained:
human microsomal EH = target: T1, human microsomal EH (Homo sapiens, UniProt P07099); assay: Selectivity: inhibition of microsomal EH; type: biochemical; details: selectivity panel
T1 sequence (P07099 1-455): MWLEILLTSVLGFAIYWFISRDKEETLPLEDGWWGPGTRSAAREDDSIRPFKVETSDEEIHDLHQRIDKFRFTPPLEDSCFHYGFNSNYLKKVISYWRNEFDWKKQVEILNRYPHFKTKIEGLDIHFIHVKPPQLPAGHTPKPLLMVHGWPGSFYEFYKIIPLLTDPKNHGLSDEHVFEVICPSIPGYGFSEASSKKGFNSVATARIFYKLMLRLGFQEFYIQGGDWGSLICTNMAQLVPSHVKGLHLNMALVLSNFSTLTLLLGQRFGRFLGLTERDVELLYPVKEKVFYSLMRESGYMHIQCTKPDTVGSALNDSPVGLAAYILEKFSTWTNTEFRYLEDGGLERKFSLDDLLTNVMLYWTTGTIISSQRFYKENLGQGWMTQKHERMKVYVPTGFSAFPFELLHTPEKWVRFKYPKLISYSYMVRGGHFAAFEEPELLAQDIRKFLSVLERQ

esterases and amidases = assay: Selectivity: inhibition of a series of esterases and amidases; type: biochemical; details: selectivity panel
[1] = human, cited from earlier work
human sEH = target: T2, human sEH (Homo sapiens, UniProt P34913); assay: Reversibility of inhibition: incubation with inhibitor, then dialysis; type: biochemical; details: 20 nM human sEH incubated with 10 μM inhibitor for 15 min, then dialyzed
T2 sequence (P34913 1-555): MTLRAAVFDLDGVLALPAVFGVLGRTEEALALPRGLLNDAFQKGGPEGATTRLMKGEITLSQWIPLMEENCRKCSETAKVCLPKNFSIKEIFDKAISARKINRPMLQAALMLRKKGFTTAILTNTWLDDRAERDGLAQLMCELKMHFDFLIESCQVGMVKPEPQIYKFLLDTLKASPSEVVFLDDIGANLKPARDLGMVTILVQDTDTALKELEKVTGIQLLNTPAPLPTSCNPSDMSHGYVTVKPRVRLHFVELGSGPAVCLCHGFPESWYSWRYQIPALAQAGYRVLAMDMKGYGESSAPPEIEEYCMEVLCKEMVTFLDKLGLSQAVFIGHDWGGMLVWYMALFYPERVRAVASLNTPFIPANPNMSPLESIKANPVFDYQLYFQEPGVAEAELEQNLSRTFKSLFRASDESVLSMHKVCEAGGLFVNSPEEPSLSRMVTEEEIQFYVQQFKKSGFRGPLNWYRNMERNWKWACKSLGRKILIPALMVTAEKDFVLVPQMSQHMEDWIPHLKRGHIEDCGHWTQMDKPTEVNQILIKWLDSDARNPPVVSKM

[2] = test system: human alkaline phosphatase; assay: Selectivity: inhibition of alkaline phosphatase; type: biochemical; details: selectivity panel
sEH-phosphatase activity = target: T3, sEH-phosphatase activity (Homo sapiens, UniProt P34913); assay: Selectivity: inhibition of sEH-phosphatase activity; type: biochemical; details: selectivity panel
T3 sequence (P34913 1-555): T2 sequence (P34913 1-555)

Inhibition of human microsomal EH (human microsomal EH): only inhibit the sEH
sEH activity recovered after dialysis (human sEH): more than 80%
Inhibition of human alkaline phosphatase [2]: only inhibit the sEH
Inhibition of sEH-phosphatase activity (sEH-phosphatase activity): only inhibit the sEH
SMILES: C[C@]12CC[C@@H]3c4ccc(O)cc4C[C@@H](CCCCCCCCC[S+]([O-])CCCC(F)(F)C(F)(F)F)[C@H]3[C@@H]1CC[C@@H]2O (stereo partly shown) [fulvestrant]
Inhibition of a series of esterases and amidases (esterases and amidases): only inhibit the sEH
Stability in humans [1]: very stable
Blood concentration ([1]; for several weeks following intramuscular treatment): around 10 nM
